Tested on: Candida albicans SC5314
Assay: Morphology assay (light microscope and SEM)
Assay type: cell-based
Details: 1 x 10^6 CFU/mL, RP medium, 8 hours 37°C; 200 nM TDNs, 20 µM His‐5 or 200 nM TDN/His‐5 (1:100); bright field images
Method: Candida albicans SC5314 (wild type) obtained from our laboratory were commercially from the American Type Culture Collection. ^34 Candida albicans strains were propagated on liquid or solid YPD medium at 30°C. The yeast cells used in all experiments were in the exponential growth phase (OD600 = 0.6). For inducing hyphae, C. albicans cells were grown in RPMI 1640 medium containing 2.5% foetal calf serum, 2 mM L‐glutamine, 20 mM HEPES and 16 mM sodium hydrogen carbonate (pH 7.0) (RP medium) at 37°C.
After fixation, the samples were dehydrated with a gradient series of ethanol. Specimens were observed under a Leica DM1000 microscope (Leica Microsystems) and a scanning electron microscope (Inspect F, FEI, America). ^40 , ^44

Histatin 5
Morphology of C. albicans (hyphae formation): more yeast cells and fewer hyphae

From publication PMC8088467 (Cell Proliferation, 2021)
